Results taken from patent US8440658B2, “Cyclic urea inhibitors of 11β-hydroxysteroid dehydrogenase 1” (Vitae Pharmaceuticals, Inc., priority 2007, dated 2013).

Target: T1, human 11β-HSD1 (Homo sapiens, UniProt P28845)
T1 construct: expressed in transfected cells; host or cells: CHO cells (microsomes)
Test: Inhibition of microsomal preparation of 11β-HSD1 (SPA, [3H]cortisone to [3H]cortisol)
Format: biochemical
Conditions: for inhibition at 0.1 µM / Average % inhibition at 100 nM: compound at 100 nM; for IC50: microsomes from CHO cells overexpressing human 11β-HSD1, 160 nM [3H]cortisone, read-out: Biological Test Example 1 (IC50 class)
Description: The inhibition of microsomal preparation of 11β-HSD1 by compounds of the invention was measured essentially as previously described (K. Solly, S. S. Mundt, H. J. Zokian, G. J. Ding, A. Hermanowski-Vosatka, B. Strulovici, and W. Zheng, High-Throughput Screening of 11-Beta-Hydroxysteroid Dehydrogenase Type 1 in Scintillation Proximity Assay Format. Assay Drug Dev Technol 3 (2005) 377-384). All reactions were carried out at room temperature in 96 well clear flexible PET Microbeta plates (PerkinElmer). The assay begins by dispensing 49 μl of substrate solution (50 mM HEPES, pH 7.4, 100 mM KCl, 5 mM NaCl, 2 mM MgCl2, 2 mM NADPH and 160 nM [^3H]cortisone (1 Ci/mmol)) and mixing in 1 μL of the test compounds in DMSO previously diluted in half-log increments (8 points) starting at 0.1 mM. After a 10 minute pre-incubation, 50 μL of enzyme solution containing microsomes isolated from CHO cells overexpressing human 11β-HSD1 (10-20 μg/ml of total protein) was added, and the plates were incubated for 90 minutes at room temperature. The reaction was stopped by adding 50 μl of the SPA beads suspension containing 10 μM 18β-glycyrrhetinic acid, 5 mg/ml protein A coated YSi SPA beads (GE Healthcare) and 3.3 μg/ml of anti-cortisol antibody (East Coast Biologics) in Superblock buffer (Bio-Rad). The plates were shaken for 120 minutes at room temperature, and the SPA signal corresponding to [^3H]cortisol was measured on a Microbeta plate reader.

T1 sequence (P28845 whole entry): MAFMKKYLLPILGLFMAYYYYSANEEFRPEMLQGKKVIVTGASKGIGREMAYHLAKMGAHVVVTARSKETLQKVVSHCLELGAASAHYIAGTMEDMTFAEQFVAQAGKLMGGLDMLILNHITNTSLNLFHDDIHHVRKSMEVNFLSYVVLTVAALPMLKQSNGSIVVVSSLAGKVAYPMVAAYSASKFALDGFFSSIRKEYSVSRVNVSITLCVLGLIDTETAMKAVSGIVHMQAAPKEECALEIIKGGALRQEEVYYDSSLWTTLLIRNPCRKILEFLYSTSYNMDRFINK

| Structure (SMILES) | inhibition at 0.1 µM | IC50 | Average % inhibition at 100 nM | Average % inhibition at 100 nM (0.1 µM) |
| --- | --- | --- | --- | --- |
| CC(C)(C)N1CCC(CCCO)(c2ccccc2)OC1=O (single isomer, unassigned) [EXAMPLE 8 Isomer 2, 3-tert-butyl-6-(3-hydroxypropyl)-6-phenyl-1,3-oxazinan-2-one] |  | > 100 nM |  | 22.1% |
| C[C@H](N1CC[C@](CCCNS(C)(=O)=O)(c2ccc(F)cc2)OC1=O)C(C)(C)C [EXAMPLE 6, N-(3-((R)-3-((S)-3,3-dimethylbutan-2-yl)-6-(4-fluorophenyl)-2-oxo-1,3-oxazinan-6-yl)propyl)methanesulfonamide] | 95.9% | < 100 nM |  |  |
| CC(C)(C)N1CCC(CCCO)(c2ccc(F)cc2)OC1=O (single isomer, unassigned) [EXAMPLE 9 Isomer 1, 3-tert-butyl-6-(4-fluorophenyl)-6-(3-hydroxypropyl)-1,3-oxazinan-2-one] |  | < 100 nM |  | 74.7% |
| C[C@H](N1CCC(CCCO)(c2ccccc2)OC1=O)C(C)(C)O (single isomer, unassigned) [EXAMPLE 10 Isomer 2] |  | > 100 nM |  | 13.4% |
| C[C@H](N1CC[C@](CCC(N)=O)(c2ccc(F)cc2)OC1=O)C(C)(C)C [EXAMPLE 4, 3-((R)-3-((S)-3,3-dimethylbutan-2-yl)-6-(4-fluorophenyl)-2-oxo-1,3-oxazinan-6-yl)propanamide] | 91.8% | < 100 nM |  |  |
| C[C@H](N1CC[C@](CCO)(c2ccc(F)cc2)NC1=O)C(C)(C)C [EXAMPLE 7, (S)-1-((S)-3,3-dimethylbutan-2-yl)-4-(4-fluorophenyl)-4-(2-hydroxyethyl)tetrahydropyrimidin-2(1H)-one] | 93.3% | < 100 nM |  |  |
| C[C@H](N1CC[C@](CCCO)(c2ccccc2)OC1=O)C(C)(C)C [EXAMPLE 3 Isomer 1] | 94% | < 100 nM |  |  |
| CC(C)(C)N1CCC(CCCO)(c2ccc(F)cc2)OC1=O (single isomer, unassigned) [EXAMPLE 9 Isomer 2, 3-tert-butyl-6-(4-fluorophenyl)-6-(3-hydroxypropyl)-1,3-oxazinan-2-one] |  | > 100 nM |  | 25.45% |
| C=CCC1(c2ccccc2)CCN([C@@H](C)C(C)(C)O)C(=O)O1 (single isomer, unassigned) [EXAMPLE 12 Isomer 1] | 47.2% | > 100 nM |  |  |
| CC(C)(C)N1CCC(CCCO)(c2ccccc2)OC1=O (single isomer, unassigned) [EXAMPLE 8 Isomer 1, 3-tert-butyl-6-(3-hydroxypropyl)-6-phenyl-1,3-oxazinan-2-one] |  | < 100 nM |  | 84.0% |
| C[C@H](N1CC[C@](CCNS(C)(=O)=O)(c2ccc(F)cc2)OC1=O)C(C)(C)C [EXAMPLE 5, N-(2-((S)-3-((S)-3,3-dimethylbutan-2-yl)-6-(4-fluorophenyl)-2-oxo-1,3-oxazinan-6-yl)ethyl)methanesulfonamide] | 91% | < 100 nM |  |  |

Continued, values first:

| inhibition at 0.1 µM | IC50 | Average % inhibition at 100 nM | Average % inhibition at 100 nM (0.1 µM) | Structure (SMILES) |
| --- | --- | --- | --- | --- |
| 97% | < 100 nM |  |  | C[C@H](N1CC[C@](CCCO)(c2ccc(F)cc2)NC1=O)C(C)(C)C [EXAMPLE 11, (R)-1-((S)-3,3-dimethylbutan-2-yl)-4-(4-fluorophenyl)-4-(3-hydroxypropyl)tetrahydropyrimidin-2(1H)-one] |
| 58.8% | < 100 nM |  |  | C[C@H](N1CC[C@@](CCCO)(c2ccccc2)OC1=O)C(C)(C)C [EXAMPLE 3 Isomer 2, (S)-3-((S)-3,3-dimethylbutan-2-yl)-6-(3-hydroxypropyl)-6-phenyl-1,3-oxazinan-2-one] |
|  | < 100 nM | 94.4% |  | C[C@H](N1CC[C@](CCO)(c2ccc(F)cc2)OC1=O)C(C)(C)C (single isomer, unassigned; isomer 1) [EXAMPLE 1 Isomer 1] |
|  | < 100 nM |  | 53.9% | C=CCC1(c2ccccc2)CCN([C@@H](C)C(C)(C)O)C(=O)O1 (single isomer, unassigned) [EXAMPLE 12 Isomer 2] |
|  | < 100 nM | 36.5% |  | C[C@H](N1CC[C@@](CCO)(c2ccc(F)cc2)OC1=O)C(C)(C)C (single isomer, unassigned; isomer 2) [EXAMPLE 1 Isomer 2] |
| 98.6% | < 100 nM |  |  | C[C@H](N1CC[C@](CCCO)(c2ccc(F)cc2)OC1=O)C(C)(C)C [EXAMPLE 2] |
|  | < 100 nM |  | 66.8% | C[C@H](N1CCC(CCCO)(c2ccccc2)OC1=O)C(C)(C)O (single isomer, unassigned) [EXAMPLE 10 Isomer 1] |
